Where a chain is given by its changes, count along the chain named. Read-outs that look alike come from different tables or passages of the source.
Tests used:
mutant MGL = molecular target: T1, mutant MGL (Homo sapiens, UniProt Q99685, L169S/L176S); experiment: MGL ThermoFluor assay - mutant; type: binding
T1 sequence (Q99685 1-303 L169S/L176S): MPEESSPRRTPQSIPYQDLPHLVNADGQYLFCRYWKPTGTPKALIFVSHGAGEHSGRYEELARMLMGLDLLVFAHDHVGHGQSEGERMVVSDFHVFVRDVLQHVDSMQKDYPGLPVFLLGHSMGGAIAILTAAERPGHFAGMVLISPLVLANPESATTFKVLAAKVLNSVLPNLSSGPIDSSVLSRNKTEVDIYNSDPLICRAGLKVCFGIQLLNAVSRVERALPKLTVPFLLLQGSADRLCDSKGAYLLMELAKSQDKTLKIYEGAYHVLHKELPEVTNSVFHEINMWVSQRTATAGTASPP

[1] = molecular target: T2, purified wild type MGL (wt-MGLL 6H-11-313) (Homo sapiens, UniProt Q99685)
T2 sequence (Q99685 1-303): T1 sequence (Q99685 1-303 L169S/L176S) with S169L, S176L

MGL = molecular target: T3, MGL (Rattus norvegicus, UniProt Q8R431); experiment: 2-AG accumulation assay in rat brain homogenate; type: biochemical; conditions: rat brain homogenate, 2-AG accumulation as percent of vehicle; for 2-AG accumulation, % of vehicle control at 1 µM: compound 1 μM, read-out: Rat Brain 2AG % VehCntrl (%) @ 1 μM
T3 construct: one g rat brain was homogenized using a Polytron homogenizer; from tissue; host or cells: rat brain homogenate
T3 sequence (Q8R431 1-303): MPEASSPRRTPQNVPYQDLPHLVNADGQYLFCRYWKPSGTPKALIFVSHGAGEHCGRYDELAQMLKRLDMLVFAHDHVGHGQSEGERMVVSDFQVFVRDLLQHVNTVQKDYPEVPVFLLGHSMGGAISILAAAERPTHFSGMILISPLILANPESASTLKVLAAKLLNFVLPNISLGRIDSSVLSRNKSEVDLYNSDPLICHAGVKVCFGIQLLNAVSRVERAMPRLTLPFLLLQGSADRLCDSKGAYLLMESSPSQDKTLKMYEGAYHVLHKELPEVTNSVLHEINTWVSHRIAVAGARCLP

[2] = ThermoFluor concentration-response, read-out: MGL mutant ThermoFluor Kd
[3] = ThermoFluor, compound concentration measured by qNMR, read-out: MGL mutant ThermoFluor qKd (using qNMR conc.)
[4] = ThermoFluor, compound concentration measured by qNMR, read-out: MGL mutant ThermoFluor qKd (μM) (using qNMR conc.)
[5] = ThermoFluor thermal stability binding assay, read-out: MGL mutant ThermoFluor Kd

Row | Kd (mutant MGL; [2]) | IC50 [1] | 2-AG accumulation, % of vehicle control at 1 µM (MGL) | Kd (mutant MGL; [3]) | Kd (mutant MGL; [4]) | Kd (mutant MGL; compound concentration measured by qNMR, read-out: MGL mutant ThermoFluor qKd (using qNMR conc.)) | Kd (mutant MGL; [5]) | 2-AG accumulation, % of vehicle control at 10 µM (MGL; compound 10 μM, read-out: Rat Brain 2AG % VehCntrl (%) @ 10 μM) | Structure (SMILES)
1 | 0.03 µM | 0.022 µM | 210% | – | – | – | – | – | Cc1c(C(=O)N2CC(N3CCN(C(=O)c4ccccc4)CC3)C2)sc2ccc(-c3ccccc3)cc12 [Cpd 570, 1-{1-[(3-Methyl-5-phenyl-1-benzothiophen-2-yl)carbonyl]azetidin-3-yl}-4-(phenylcarbonyl)piperazine]
2 | 0.065 µM | 0.01 µM | 410% | – | – | – | – | – | O=C(c1ccc(Oc2cccc(C(F)(F)F)c2)nc1)N1CC(N2CCN(C(=O)c3nccs3)CC2)C1 [Cpd 660]
3 | 0.002 µM | < 0.005 µM | 406% | – | – | – | – | – | Cc1c(C(=O)N2CC(N3CCN(C(=O)c4nccs4)CC3)C2)sc2ccc(-c3ccccc3)cc12 [Cpd 1346, 1-{1-[(3-Methyl-5-phenyl-1-benzothiophen-2-yl)carbonyl]azetidin-3-yl}-4-(1,3-thiazol-2-ylcarbonyl)piperazine]
4 | 0.01 µM | < 0.005 µM | 762% | – | – | – | – | – | O=C(c1ccc(C(F)c2ccc(C(F)(F)F)cc2)cc1)N1CC(N2CCN(C(=O)c3nccs3)CC2)C1 (stereo not drawn) [Cpd 982, 1-{1-[(4-{Fluoro[4-(trifluoromethyl)phenyl]methyl}phenyl)carbonyl]azetidin-3-yl}-4-(1,3-thiazol-2-ylcarbonyl)piperazine]
5 | – | 0.009 µM | 351% | 0.402 µM | – | – | – | – | CCCN(CCC)S(=O)(=O)c1ccc(C(=O)N2CC(N3CCN(C(=O)c4nccs4)CC3)C2)cc1 [Cpd 658]
6 | 0.005 µM | 0.015 µM | 583% | – | – | – | – | – | O=C(c1ccc(N2CCCC2)cc1)N1CC(N2CCN(C(=O)c3nccs3)CC2)C1 [Cpd 669]
7 | – | 0.039 µM | 404% | – | 0.004 µM | – | – | – | O=C(c1ccc2c(ccn2-c2ccc(F)cc2)n1)N1CC(N2CCN(C(=O)c3nccs3)CC2)C1 [Cpd 1153]
8 | – | 0.016 µM | 508% | – | – | 0.009 µM | – | – | O=C(c1cc(F)c2c(ccn2-c2ccc(F)cc2)c1)N1CC(N2CCN(C(=O)c3cscn3)CC2)C1 [Cpd 1111]
9 | 0.002 µM | < 0.005 µM | 909% | – | – | – | – | – | O=C(c1ccc2c(c1)c(Cl)cn2-c1ccc(F)cc1)N1CC(N2CCN(C(=O)c3nccs3)CC2)C1 [Cpd 1365, 3-Chloro-1-(4-fluorophenyl)-5-({3-[4-(1,3-thiazol-2-ylcarbonyl)piperazin-1-yl]azetidin-1-yl}carbonyl)-1H-indole]
10 | 0.515 µM | 0.434 µM | 173% | – | – | – | – | – | O=C(c1csnn1)N1CC(N2CCN(C(=O)c3cc4cc(C(F)(F)F)ccc4s3)CC2)C1 [Cpd 753]
11 | 0.003 µM | 0.009 µM | 742% | – | – | – | – | – | O=C(c1ccc(-c2nc(-c3ccc(F)cc3)cs2)cc1)N1CC(N2CCN(C(=O)c3nccs3)CC2)C1 [Cpd 1082]
12 | 0.025 µM | 0.008 µM | 552% | – | – | – | – | – | O=C(c1ccc(-c2ccc(C(F)(F)F)s2)cc1)N1CC(N2CCN(C(=O)c3cscn3)CC2)C1 [Cpd 1071, 1-(1,3-Thiazol-4-ylcarbonyl)-4-[1-({4-[5-(trifluoromethyl)thiophen-2-yl]phenyl}carbonyl)azetidin-3-yl]piperazine]
13 | – | 0.039 µM | 552% | – | 0.002 µM | – | – | – | Cc1c(C(=O)N2CC(N3CCN(C(=O)c4nccs4)CC3)C2)sc2nc(C(F)(F)F)ccc12 [Cpd 686]
14 | – | < 0.005 µM | 963% | 0.008 µM | – | – | – | – | O=C(c1ccc2c(ccn2-c2ccc(C(F)(F)F)nc2)c1)N1CC(N2CCN(C(=O)c3nccs3)CC2)C1 [Cpd 1312, 5-({3-[4-(1,3-Thiazol-2-ylcarbonyl)piperazin-1-yl]azetidin-1-yl}carbonyl)-1-[6-(trifluoromethyl)pyridin-3-yl]-1H-indole]
15 | 1.64 µM | 0.011 µM | 450% | – | – | – | – | – | COc1ccc(-c2cccc(C(=O)N3CC(N4CCN(C(=O)c5nccs5)CC4)C3)c2)cc1 [Cpd 1091]
16 | 0.025 µM | 0.046 µM | 459% | – | – | – | – | – | O=C(c1ccc(-c2ccc(C(F)(F)F)s2)cc1)N1CCN(C2CN(C(=O)c3nccs3)C2)CC1 [Cpd 1161]
17 | 0.178 µM | 0.063 µM | 931% | – | – | – | – | – | O=C(c1nccs1)N1CCN(C2CN(C(=O)c3cccc(-c4ccccc4)c3F)C2)CC1 [Cpd 1172]
18 | – | 0.021 µM | 198% | – | 0.059 µM | – | – | – | O=C(c1ccccc1)N1CCN(C2CN(C(=O)c3ccc4c(ccn4-c4cc(F)c(F)c(F)c4)c3)C2)CC1 [Cpd 569]
19 | – | 0.077 µM | 288% | 0.278 µM | – | – | – | – | Cc1ccc(-n2ccc3cc(C(=O)N4CC(N5CCN(C(=O)c6ccc[nH]6)CC5)C4)ccc32)cn1 [Cpd 1181, 1-(6-Methylpyridin-3-yl)-5-({3-[4-(1H-pyrrol-2-ylcarbonyl)piperazin-1-yl]azetidin-1-yl}carbonyl)-1H-indole]
20 | – | < 0.005 µM | 718% | – | 0.043 µM | – | – | – | Cc1sc(C(=O)N2CC(N3CCN(C(=O)c4nccs4)CC3)C2)cc1-c1cccc(C(F)(F)F)c1 [Cpd 1351]
21 | 0.5 µM | 0.151 µM | 231% | – | – | – | – | – | O=C(c1nccs1)N1CCN(C2CN(C(=O)c3cc(-c4ccccc4)ccc3Cl)C2)CC1 [Cpd 1200]
22 | 0.259 µM | 0.027 µM | 180% | – | – | – | – | – | O=C(c1ccc(F)c(Cc2ccc(C(F)(F)F)cc2)c1)N1CC(N2CCN(C(=O)c3nccs3)CC2)C1 [Cpd 1007, 1-[1-({4-Fluoro-3-[4-(trifluoromethyl)benzyl]phenyl}carbonyl)azetidin-3-yl]-4-(1,3-thiazol-2-ylcarbonyl)piperazine]
23 | 0.006 µM | < 0.005 µM | 534% | – | – | – | – | – | CCCCc1ccc(C(=O)N2CC(N3CCN(C(=O)c4nccs4)CC3)C2)cc1 [Cpd 894]
24 | – | 1.22 µM | – | – | – | – | 0.0626 µM | 520% | O=C(c1ccccc1)N1CCN(C2CN(C(=O)c3cc4cccc(C(F)(F)F)c4s3)C2)CC1 [Cpd 329, 1-(Phenylcarbonyl)-4-(1-{[7-(trifluoromethyl)-1-benzothiophen-2-yl]carbonyl}azetidin-3-yl)piperazine]
25 | – | 0.008 µM | 839% | 0.007 µM | – | – | – | – | COc1ccc(-n2ccc3cc(C(=O)N4CC(N5CCN(C(=O)c6nccs6)CC5)C4)ccc32)cn1 [Cpd 1072, 1-(6-Methoxypyridin-3-yl)-5-({3-[4-(1,3-thiazol-2-ylcarbonyl)piperazin-1-yl]azetidin-1-yl}carbonyl)-1H-indole]
26 | – | 0.013 µM | 507% | – | – | – | 0.058 µM | – | O=C(c1ccc2c(c1)CCN(C(=O)c1cccs1)C2)N1CC(N2CCN(C(=O)c3nccs3)CC2)C1 [Cpd 665]
27 | – | 0.273 µM | 499% | – | – | – | 0.067 µM | – | O=C(c1ccccc1)N1CCc2cc(C(=O)N3CC(N4CCN(C(=O)c5nccs5)CC4)C3)ccc2C1 [Cpd 736]

Source: US8362000B2, “Azetidinyl diamides as monoacylglycerol lipase inhibitors” (Janssen Pharmaceutica NV, priority 2009, dated 2013)
